Source: ChEMBL document CHEMBL1145654, “Phototoxic and Insecticidal Activities of Chromenes and Benzofurans from Encelia” (J Nat Prod, 1983)
Active and inactive are the calls of the source. The rule behind the calls is not given here.

Columns and labels:
Format in all cases: functional, organism-based
[1] = test system: Pseudomonas fluorescens; assay: Phototoxicity in 2 hrs UV irradiated Pseudomonas fluorescens measured after 24 hrs
[2] = test system: Candida albicans; assay: Phototoxicity in 2 hrs UV irradiated Candida albicans measured after 24 hrs
[3] = test system: Oncopeltus fasciatus; assay: Antijuvenile hormone activity in first instar Oncopeltus fasciatus larvae at 5 mg to 100 ug/petri dish
[4] = test system: Saccharomyces cerevisiae; assay: Phototoxicity in 2 hrs UV irradiated Saccharomyces cerevisiae measured after 24 hrs
[5] = test system: Bacillus subtilis; assay: Phototoxicity in 2 hrs UV irradiated Bacillus subtilis measured after 24 hrs
[6] = test system: Escherichia coli; assay: Phototoxicity in 2 hrs UV irradiated Escherichia coli measured after 24 hrs
[7] = test system: Staphylococcus; assay: Phototoxicity in 2 hrs UV irradiated Staphylococcus albus measured after 24 hrs
[8] = test system: Oncopeltus fasciatus; assay: Insecticidal activity in first instar Oncopeltus fasciatus larvae at 1.2 mg/petri dish after 3 to 4 days
[9] = test system: Oncopeltus fasciatus; assay: Insecticidal activity in first instar Oncopeltus fasciatus larvae at 5 mg/petri dish

## COc1cc2c(cc1OC)OC(C)(C)C=C2
[1]
  Activity: inactive
[2]
  Activity: inactive
[3]
  Activity: inactive
[4]
  Activity: inactive
[5]
  Activity: inactive
[6]
  Activity: inactive
[7]
  Activity: inactive

## COc1c2occc2cc2ccc(=O)oc12
[1]
  Activity: inactive
[2]
  Activity: Active
[4]
  Activity: Active
[5]
  Activity: Active
[6]
  Activity: Active
[7]
  Activity: Active

## C=C(C)c1cc2cc(C(C)=O)c(O)cc2o1
[1]
  Activity: inactive
[2]
  Activity: inactive
[3]
  Activity: inactive
[4]
  Activity: inactive
[5]
  Activity: inactive
[6]
  Activity: inactive
[7]
  Activity: inactive

## COc1ccc2c(c1)OC(C)(C)C=C2
[1]
  Activity: inactive
[2]
  Activity: inactive
[3]
  Activity: inactive
[4]
  Activity: inactive
[5]
  Activity: inactive
[6]
  Activity: inactive
[7]
  Activity: inactive

## C=C(C)c1cc2cc(C(C)=O)c(OC)cc2o1
[1]
  Activity: Active
[2]
  Activity: Active
[4]
  Activity: Active
[5]
  Activity: Active
[6]
  Activity: inactive
[7]
  Activity: inactive

## COc1cc2c(cc1C(C)=O)C=CC(C)(C)O2
[1]
  Activity: inactive
[2]
  Activity: Active
[3]
  Activity: inactive
[4]
  Activity: Active
[5]
  Activity: Active
[8]
  Activity: Active
[6]
  Activity: inactive
[7]
  Activity: inactive

## CC(=O)c1cc2c(cc1O)OC(C)(C)C=C2
[1]
  Activity: inactive
[2]
  Activity: Active
[9]
  Activity: Active
[3]
  Activity: inactive
[4]
  Activity: Active
[5]
  Activity: Active
[6]
  Activity: inactive
[7]
  Activity: inactive

## COc1cc2c(cc1[C@](C)(O)CC(C)c1cc3cc(C(C)=O)c(O)cc3o1)C=CC(C)(C)O2 (stereo not given in full)
[1]
  Activity: inactive
[2]
  Activity: inactive
[4]
  Activity: inactive
[5]
  Activity: inactive
[6]
  Activity: inactive
[7]
  Activity: inactive
